From patent US20080096909A1, “APOMORPHINE INHIBITORS OF AMYLOID-BETA (ABETA) FIBRIL FORMATION AND THEIR USE IN AMYLOIDOSIS BASED DISEASE” (priority 2001, published 2008)
Where “and” joins values, the source holds several entries; their conditions need not be identical. Equal entries are not always repeated. Entries after “also recorded” stand apart in the source; their conditions may differ.

Experiments:
monomeric Aβ = target: T1, monomeric Aβ (Homo sapiens, UniProt P05067); test: Sedimentation equilibrium of unsedimented monomeric species, monitored at 330 nm; assay type: binding
T1 construct: Amyloid-β (Aβ 1-40) was purchased from California Peptides (Lot # SF104); purchased California Peptides Lot # SF104
T1 sequence (P05067 672-711): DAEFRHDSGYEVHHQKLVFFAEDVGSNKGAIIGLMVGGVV

Aβ 1-40 [1] = target: T2, Aβ 1-40 (Homo sapiens, UniProt P05067); test: Thioflavin T (ThT) fluorescence assay for fibril formation; assay type: biochemical; parameters: Amyloid-β (Aβ 1-40) was purchased from California Peptides (Lot # SF104); purchased California Peptides Lot # SF104
T2 sequence (P05067 672-711): as above
Procedure: Preparation of Stock Peptide Solutions for Fibrillization Studies. Stock solutions of the inhibitors were prepared by dissolving the compounds at a concentration of 5-7 mM in water or in 1-1.5% DMSO solutions (for compounds with reduced solubility). Amyloid-β (Aβ 1-40) was purchased from California Peptides (Lot # SF104). Aβ 1-40 stock solutions were prepared by dissolving purified and lyophilized peptide in cold double distilled water to yield stock solutions at a concentration of 2 mg/mL. The stock solutions were used within 10-30 minutes of dissolution. Samples for fibril formation assay were prepared by diluting the appropriate amount of Aβ stock with pH 7.4 Tris-HCl buffer (50 mM Tris, 150 mM NaCl) to afford a final peptide concentration of 100 μM. […] Analytical ultracentrifugation, and electron microscopy were periodically used to ensure that we start our experiments with a hydrodynamically defined Aβ monomer, and the absence of any preformed fibrils in solution.
Thioflavin T (ThT) Fluorescence Assay for Fibril Formation. Thioflavin T was purchased from Aldrich (70% purity) and was recrystallized from benzene/ethanol (1:1) to afford yellow crystals (36). Thioflavin T binding assays were performed by addition of 50 μL of 100 μM Aβ solutions, which were incubated at 37° C. in the absence and presence of inhibitors, to 450 μL solution of 10 μM Thioflavin T in phosphate buffer (10 mM phosphate, 100 mM KCl). The solutions were mixed and fluorescence measurements were recorded in Biosystems model spectrofluorimeter at 25° C. using a 1 cm path length quartz cell. An excitation slit width of 4 nm and an emission slit width of 8 nm were employed. The excitation wavelength was set to 450 nm and emission monitored from 460-630 nm. The relative fluorescence at 482 nm was plotted for each sample, and was used as a measure of the amount of fibrillar aggregates in solution.

Aβ 1-40 [2] = target: T2, Aβ 1-40; test: Sedimentation velocity of Aβ quaternary structures in the presence of inhibitors; assay type: biochemical; parameters: Amyloid-β (Aβ 1-40) was purchased from California Peptides (Lot # SF104); purchased California Peptides Lot # SF104; conditions: for Average sedimentation coefficients of two populations of oligomeric species: apomorphine 50 μM
Procedure: Probing the Mechanism of Amyloid Fibril Formation Inhibition using Sedimentation Velocity Experiments. To probe the mechanism by which apomorphine and its structural analogues inhibit Aβ fibril formation, sedimentation velocity was used to determine the distribution and molecular size of quaternary structures of Aβ in the presence and absence of inhibitors. Aβ samples (100 μM) in a pH 7.4 buffer (50 mM Tris-HCl, 150 mM NaCl) were incubated at 37° C. for 1-10 days in the presence and absence of inhibitors, then transferred to 25° C. for 1-3 hours before the sedimentation experiments were carried out at 20° C. The sedimentation properties of Aβ 1-40 in the absence and presence of inhibitors were obtained from data collected on a temperature controlled Beckman XL-1 using 400-420 μL of peptide solutions and data were recorded at rotor speeds of 3,000-30,000 rpm in continuous mode with a step size of 0.005 cm. The sedimentation velocity absorbance profiles were then analyzed using the time derivative (dc/dt) analysis program, which was provided by J. Philo, to obtain the sedimentation coefficient distribution g(*s) for all the quaternary structures in solution as described previously (37, 38).
Fitting of the g(*s) profiles allows for the determination of the sedimentation coefficient (peak position, with a unit of Svedberg, 1 S=10^−13 s) and the diffusion coefficient (from the peak width, with a unit of Fick, 1 F=[…]). This method has the advantage of allowing for the calculation of the molecular weight of the sedimenting species using equation II since s and D can be obtained from the fitting analysis. [formula]
In the cases where the diffusion coefficient cannot be determined accurately, the molecular weight of a spherical protein can still be estimated by combining the Svedberg equation and Stokes equation for the frictional coefficient to obtain equation III which utilizes the estimated sedimentation coefficient: [formula]
Sedimentation velocity was also used to determine the amount of soluble Aβ and Aβ monomer in solution after sedimentation of Aβ aggregates. […] The percent of monomeric species in solution was calculated using equation IV at 50,000 rpm and after complete sedimentation of Aβ high MW oligomeric species. Sedimentation equilibrium studies of the unsedimented species were carried out to determine whether a monomer, dimer or a mixture was present in solution. % of unsedimented Aβ=1−(Absorbance(290 nm, 3000 rpm)−Absorbance(290 nm, 20,000-30,000 rpm))×100 (IV)

Aβ 1-40 [3] = target: T2, Aβ 1-40; test: Electron microscopy of Aβ aggregates in the presence of inhibitor; assay type: biochemical; parameters: Amyloid-β (Aβ 1-40) was purchased from California Peptides (Lot # SF104); purchased California Peptides Lot # SF104
Procedure: Electron Microscopy. Electron microscopy was used to follow the changes in size and structural morphology of Aβ aggregates in the presence and absence of inhibitor at 37° C. as a function of time. EM samples were prepared by placing 5 μL of the Aβ solution on a carbon-coated grid and allowing the solution to stand for 2 min before removing excess solution. The grid was then washed once with distilled water and once with 1% uranyl acetate before staining the sample with fresh 1% uranyl acetate for another 2 min. The samples were then studied in a Phillips CM-100 electron microscope. The grids were thoroughly examined to get an overall statistical evaluation of the structures present in the sample. All electron micrographs were taken at 100 kV.

Aβ 1-40 [4] = target: T2, Aβ 1-40; test: Congo red binding studies; assay type: biochemical; parameters: Amyloid-β (Aβ 1-40) was purchased from California Peptides (Lot # SF104); purchased California Peptides Lot # SF104; conditions: Aβ solutions containing apomorphine, 3 days at 37° C.
Aβ 1-40 [5] = target: T2, Aβ 1-40; test: Visible sedimentable aggregates in Aβ 1-40 fibrillization samples; parameters: Amyloid-β (Aβ 1-40) was purchased from California Peptides (Lot # SF104); purchased California Peptides Lot # SF104; conditions: Aβ 1-40 100 μM, apomorphine 100 μM, 37° C., 1-3 days

Molecular weight from single species fit of sedimentation equilibrium (monomeric Aβ; remaining monomeric species, monitored at 330 nm): 4,430 g/mol
Binding to monomeric Aβ (monomeric Aβ; sedimentation equilibrium at 330 nm): bound to monomeric Aβ
Thioflavin T signal after longer incubation (Aβ 1-40 [1]; longer incubation at 37° C., some long fibrils formed): did not exhibit any changes
Thioflavin T signal with sodium metabisulphite added (Aβ 1-40 [1]; stock solutions containing 1% (v/v) sodium metabisulphite, 37° C., pH 7.4, 3 days): restoration of the ThT signal
Amount of nonfibrillar assemblies (protofibrils) formed by Aβ alone relative to that obtained in the presence of compound (Aβ 1-40 [2]; 20 hour incubation): ~30%
Average sedimentation coefficients of two populations of oligomeric species (Aβ 1-40 [2]; Aβ 100 μM): 35 S and 56 S
Average sedimentation coefficients of two populations of oligomeric species (Aβ 1-40 [2]; Aβ 100 μM, listed as apomorhine): 35 S and 56 S
Average sedimentation coefficient of Aβ-apomorphine complex(s) (Aβ 1-40 [2]; Aβ 100 μM, apomorphine 100 μM, 3 days, 30,000 rpm): 50 S
Sedimentation of Aβ 1-40 at 3,000 rpm (fibrils) (Aβ 1-40 [2]; apomorphine at equimolar ratio to Aβ 1-40): no sedimentation of Aβ 1-40 was observed
Increase in amount of soluble protofibrils (Aβ 1-40 [2]; incubation 17-24 h at 37° C., in the presence of apomorphine): 60%
Sedimentation coefficient after addition of apomorphine (Aβ 1-40 [2]; incubation 17-24 h at 37° C., Aβ alone 20 S): 30 S
Nonfibrillar assemblies as share of species in solution (Aβ 1-40 [3]; Aβ 1-40 100 μM, apomorphine 50 μM, 3-6 days at 37° C.): 70-85%
Protofibril assembly into fibrils when compound is added to pre-incubated Aβ (EM and sedimentation velocity) (Aβ 1-40 [3]; Aβ pre-incubated 18-20 hr at 37° C., then three to nine days with compound): exhibited similar behavior
SMILES: CN1CCc2cccc3c2C1Cc1ccc(O)c(O)c1-3 (single isomer, unassigned; (-)) [apomorphine, (−)-10,11-dihydroxyaporphine]
Thioflavin T fluorescence at 482 nm (amount of fibrils) (Aβ 1-40 [1]; Aβ 1-40 100 μM incubated with compound, pH 7.4, 37° C., 3 days): did not exhibit this typical fluorescence; also recorded: did not affect the ThT fluorescence spectra; also recorded: signal near background
Species seen by electron microscopy (Aβ 1-40 [3]; Aβ 1-40 100 μM, apomorphine 50 μM): both long unbranched fibrils and short nonfibrillar assemblies were observed
Species seen by electron microscopy (Aβ 1-40 [3]; Aβ 1-40 100 μM, apomorphine 100 μM): accumulation of predominantly soluble, nonfibrillar assemblies
Species by sedimentation velocity and EM (Aβ 1-40 [3]; Aβ 1-40 100 μM, apomorphine 200 μM, 37° C., 2-6 days): stabilization of soluble oligomeric species
Fibril formation at apomorphine concentrations below 50 μM (Aβ 1-40 [3]; Aβ 1-40 100 μM, apomorphine <50 μM, 3-9 days at 37° C.): significant fibrils were formed; also recorded: not effective as an inhibitor
Inhibition of Aβ fibril formation by EM, aged or freshly prepared stock solutions (Aβ 1-40 [3]; three to four days at 37° C.): effective inhibition of Aβ fibril formation
Congo red maximal absorbance and red-shifted maximum (Aβ 1-40 [4]): no increase in the maximal absorbance and red-shifted maximum
Visible sedimentable aggregates (Aβ 1-40 [5]): did not show any visible sedimentable aggregates
